Experimental data published in article PMC6105164 (Cancer Chemotherapy and Pharmacology, 2018).

Tests used:
[1] = system: patients with KRAS mutations; details: previous phase II trial; cited from earlier work
clinical = details: human, in vivo; for AUC(0-t): AUC12h
Description: This trial was a multiple-ascending dose trial in 28-day cycles. The doses used were 100, 200, 400, 600, 800, and 1000 mg. The initial dose (100 mg) was determined in accordance with the International Conference on Harmonisation of Technical Requirements for Registration of Pharmaceuticals for Human Use-S9 guideline. […] Patients received only the morning dose on day 1 for pharmacokinetics evaluation. […] Grades were determined according to the National Cancer Institute Common Terminology Criteria for Adverse Events (NCI-CTCAE v.4.0).
Blood samples were collected 10 times on day 1 (before drug administration, and 0.5-, 1-, 1.5-, 2-, 4-, 6-, 8-, 12-, and 24-h post-administration), once on days 4, 7, and 14, and 9 times on day 21 (before morning dose, and 0.5, 1, 1.5, 2, 4, 6, 8, and 12 h after morning dose but before evening dose). Urine samples were collected from patients who received 200, 600, or 1000 mg on day 1 (before drug administration, and 0–6-, 6–12-, 12–24-h post-administration).

Q: Which “partial response (PR)” value [1] does the source give for `CC(C)=CCC/C(C)=C/CC/C(C)=C/CSc1ccccc1C(=O)O` [Salirasib, S-trans, trans-farnesylthiosalicylic acid] here?
A: no patients achieved PR

Q: What about the “dose at which Cmax and AUCinf were maximal” value (clinical) of the same molecule?
A: 800 mg

Q: What about the “dose proportionality of Cmax and AUC12h (power model analyses)” value (clinical) of the same molecule?
A: increased proportionally and in dose-dependent manners

Q: And the half-life (clinical)?
A: 3.5 to 9.11 h

Q: What about the “mean Cmax across dose groups” value (clinical) of the same molecule?
A: 1180 to 4870 ng/mL

Q: What about the “time to Cmax, median, across dose groups” value (clinical) of the same molecule?
A: 2.10 to 4.05 h

Q: What about the AUC(0-inf) (clinical; 100 mg) of the same molecule?
A: 4970 ± 1600 ng·h/mL

Q: What about the “CL/F, mean ± SD” value (clinical; 100 mg) of the same molecule?
A: 21.6 ± 6.80 L/h

Q: And the half-life (clinical; 100 mg)?
A: 3.81 ± 0.25 h

Q: And the “tmax, Range” value (clinical; 100 mg)?
A: 1.52 to 3.88 h

Q: What about the AUC(0-t) (clinical; 100 mg, mean ± SD) of the same molecule?
A: 4700 ± 1490 ng·h/mL

Q: And the Cmax (clinical; 100 mg, Cmax, mean ± SD)?
A: 1340 ± 473 ng/mL

Q: And the “AUC12h, mean ± SD” value (clinical; 200 mg)?
A: 10,500 ± 4450 ng h/mL

Q: And the AUC(0-inf) (clinical; 200 mg)?
A: 11400 ng·h/mL

Q: And the “CL/F, mean ± SD” value (clinical; 200 mg)?
A: 19.1 ± 7.35 L/h

Q: What about the “Cmax, mean ± SD” value (clinical; 200 mg) of the same molecule?
A: 2830 ± 822 ng/mL

Q: And the half-life (clinical; 200 mg)?
A: 4.16 ± 1.13 h

Q: What about the “tmax, Range” value (clinical; 200 mg) of the same molecule?
A: 2.13 to 4.00 h

Q: And the AUC(0-t) (clinical; 200 mg, mean ± SD)?
A: 10400 ng·h/mL

Q: And the Cmax (clinical; 200 mg, Cmax, mean ± SD)?
A: 2610 ± 837 ng/mL

Q: And the “AUC12h, mean ± SD” value (clinical; 400 mg)?
A: 14,800 ± 3520 ng h/mL

Q: And the AUC(0-inf) (clinical; 400 mg)?
A: 20300 ng·h/mL

Q: What about the “CL/F, mean ± SD” value (clinical; 400 mg) of the same molecule?
A: 20.1 ± 3.83 L/h

Q: What about the “Cmax, mean ± SD” value (clinical; 400 mg) of the same molecule?
A: 3630 ± 876 ng/mL

Q: And the half-life (clinical; 400 mg)?
A: 4 ± 1.88 h

Q: And the AUC(0-t) (clinical; 400 mg, mean ± SD)?
A: 18000 ng·h/mL

Q: And the Cmax (clinical; 400 mg, Cmax, mean ± SD)?
A: 3250 ± 1440 ng/mL

Q: What about the “AUC12h, mean ± SD” value (clinical; 600 mg) of the same molecule?
A: 18,700 ± 4710 ng h/mL

Q: What about the AUC(0-inf) (clinical; 600 mg) of the same molecule?
A: 18500 ng·h/mL

Q: And the “CL/F, mean ± SD” value (clinical; 600 mg)?
A: 33.0 ± 5.25 L/h

Q: And the “Cmax, mean ± SD” value (clinical; 600 mg)?
A: 4500 ± 1580 ng/mL

Q: And the half-life (clinical; 600 mg)?
A: 3.5 ± 0.39 h

Q: What about the “tmax, Range” value (clinical; 600 mg) of the same molecule?
A: 1.42 to 4.00 h

Q: And the AUC(0-t) (clinical; 600 mg, mean ± SD)?
A: 16900 ng·h/mL

Q: What about the Cmax (clinical; 600 mg, Cmax, mean ± SD) of the same molecule?
A: 4870 ± 2390 ng/mL

Q: And the Tmax (clinical; 600 mg, Median)?
A: 2.1 h

Q: And the Tmax (clinical; 600 mg, Range)?
A: 2 to 4 h

Q: And the “AUC12h, mean ± SD” value (clinical; 800 mg)?
A: 16,300 ± 6240 ng h/mL

Q: What about the AUC(0-inf) (clinical; 800 mg) of the same molecule?
A: 26600 ng·h/mL

Q: And the “CL/F, mean ± SD” value (clinical; 800 mg)?
A: 30.7 ± 4.55 L/h

Q: What about the “Cmax, mean ± SD” value (clinical; 800 mg) of the same molecule?
A: 4790 ± 1100 ng/mL

Q: And the “dose proportionality of Cmax and AUCinf (power model analyses)” value (clinical; 800 mg)?
A: increased proportionally until 400 mg in dose-dependent manners

Q: What about the half-life (clinical; 800 mg) of the same molecule?
A: 3.67 ± 0.81 h

Q: And the “tmax, Range” value (clinical; 800 mg)?
A: 2.02 to 5.93 h

Q: And the AUC(0-t) (clinical; 800 mg, mean ± SD)?
A: 23800 ng·h/mL

Q: And the Cmax (clinical; 800 mg, Cmax, mean ± SD)?
A: 3840 ± 2090 ng/mL

Q: What about the Tmax (clinical; 800 mg, Median) of the same molecule?
A: 2.98 h

Q: What about the Tmax (clinical; 800 mg, Range) of the same molecule?
A: 1.42 to 5.98 h

Q: And the “AUC12h, mean ± SD” value (clinical; 1000 mg)?
A: 15,700 ± 9100 ng h/mL

Q: And the “Cmax, mean ± SD” value (clinical; 1000 mg)?
A: 4990 ± 1210 ng/mL

Q: What about the half-life (clinical; 1000 mg) of the same molecule?
A: 9.11 ± 9.79 h

Q: And the AUC(0-t) (clinical; 1000 mg, mean ± SD)?
A: 22400 ng·h/mL

Q: And the Cmax (clinical; 1000 mg, Cmax, mean ± SD)?
A: 2630 ± 1450 ng/mL

Q: And the Tmax (clinical; 1000 mg, Range)?
A: 2 to 3.97 h

Q: What about the Cmax (clinical; mean Cmax across dose groups) of the same molecule?
A: 1340 to 4990 ng/mL

Q: And the AUC(0-t) (clinical; po, 100 mg, mean ± SD)?
A: 4610 ng·h/mL

Q: What about the Cmax (clinical; po, 100 mg, Cmax, mean ± SD) of the same molecule?
A: 1180 ng/mL

Q: And the AUC(0-inf) (clinical; po, 1000 mg)?
A: 26900 ng·h/mL
